Source: patent publication US20120053182A1, “METHODS OF ALLEVIATING OR TREATING SIGNS AND/OR SYMPTOMS ASSOCIATED WITH MODERATE TO SEVERE PARKINSON'S DISEASE” (SCHERING CORPORATION, priority 2009, published 2012)
Like-named read-outs stand apart in the source and are kept apart here.

Legend:
[1] = Pharmacokinetics after oral administration to healthy human volunteers; type: in vivo; settings: composition providing about 5 mg, serum; for AUC: human, po, 5 mg, healthy human volunteers
[2] = test system: patients suffering from Parkinson's disease; assay: Clinical trial in patients with moderate to severe Parkinson's disease receiving L-dopa therapy; type: in vivo, human
Description: A clinical trial was carried out using 253 patients suffering from Parkinson's disease and receiving L-dopa therapy.
These patients were continued on their L-dopa therapy and randomized to receive in addition either a placebo (n=49), a composition administered orally BID in an amount providing 1 mg of the compound of Formula I (n=49), a composition administered orally BID in an amount providing 2 mg of the compound of Formula I (n=49), a composition administered orally BID in an amount providing 5 mg of the compound of Formula I (n=49), or a composition administered orally BID in an amount providing 10 mg of the compound of Formula I (n=57). This treatment was continued for 12 weeks while the patients kept a diary recording the “Off-time” periods, “On-time” periods (recording whether “On-time” was accompanied by dyskinesia or troubling dyskinesia) and their total amount of sleep time. These patients were also interviewed clinically and were evaluated as well in accordance with the UPDRS rating scale, as well as for when, and the duration of, sleep attacks experienced during the study. Blood chemistry was followed clinically at regular intervals.
Moreover, with reference to FIG. 3, assessment of patients was made using the Unified Parkinson's Disease Rating Scale (UPDRS) following several weeks of administration. […] With reference to FIG. 3, for example, UPDRS, part III scores were improved by showing a decrease of at least about 3 points below the baseline score at the start of the study.

[3] = Bioavailability by age or sex in healthy human volunteers; type: in vivo; settings: composition used in the patient study
A2a receptors = target: T1, A2a receptors (Homo sapiens, UniProt P29274); assay: PET scan receptor site occupancy study in healthy human volunteers; type: in vivo
T1 construct: PET scans of a human brain were obtained; from tissue; host or cells: brain of living healthy human volunteers (in vivo PET)
T1 sequence (P29274 whole entry): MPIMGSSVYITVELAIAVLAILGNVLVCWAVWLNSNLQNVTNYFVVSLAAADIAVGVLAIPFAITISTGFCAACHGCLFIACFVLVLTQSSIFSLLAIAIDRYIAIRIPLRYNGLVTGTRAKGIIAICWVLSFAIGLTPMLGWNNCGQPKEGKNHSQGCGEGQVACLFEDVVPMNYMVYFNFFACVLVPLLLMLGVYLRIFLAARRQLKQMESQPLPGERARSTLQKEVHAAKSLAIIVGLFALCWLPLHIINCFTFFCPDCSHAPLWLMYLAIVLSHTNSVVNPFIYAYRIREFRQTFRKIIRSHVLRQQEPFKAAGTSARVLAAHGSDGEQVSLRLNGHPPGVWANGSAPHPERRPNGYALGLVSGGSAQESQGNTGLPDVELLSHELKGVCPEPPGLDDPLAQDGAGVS
Description: In a separate study with healthy human volunteers, and with reference to FIG. 5, PET scans of a human brain were obtained after IV administration to a subject of a composition intravenous administration of the compound of Formula II which had been labeled with ^11C-radio-isotope and then after an interval subsequent intravenous administered the compound of Formula I.
This study was carried out using 18 subjects. Capsules containing a composition providing the compound of Formula I (unlabelled) in amounts of 10, 50, or 200 mg were also administered to a subset of test subjects prior to injection of the radio-labeled compound of Formula II. Using the information obtained from the PET scan regarding the extent, location, and inhibition of radiotracer binding permitted calculation of binding potentials for the compound of Formula I. The test subjects were also evaluated for plasma levels of the compound of Formula I during the study. […] These studies also indicate that the compound of Formula I has a selectivity for the A2a receptor site of 20,000:1 relative to binding at A1, A2b, and A3 receptor sites. This study is consistent with a therapeutic level of plasma concentration being provided by administering a composition orally which provides a human subject to whom it is administered with from at least about 2 mg of the compound of Formula I to about 10 mg of the compound of Formula I and preferably 5 mg of the compound of Formula I. It is believed that BID dosing of a composition providing from about 5 mg to about 50 mg of the compound of Formula I will provide at least about 50% receptor site occupancy for at least about 12 hours/day in at least about 80% of the human population and at least about 80% receptor site occupancy for at least about 18 hours/day in at least about 75% of the population.

[4] = test system: akathisia induced by administration of Haldol; assay: Haldol-induced akathisia in healthy volunteers; type: in vivo, human; settings: composition providing about 10 mg, FIG. 4
Excerpt: It is believed that a composition which provides an effective amount of the compound of Formula I will also prevent feelings of restlessness, of example, Haldol-induced akathesia.

[5] = at least about 2 mg BID oral, 12 weeks, with L-dopa, patient diary

SMILES: COCCOc1ccc(N2CCN(CCN3N=CC4c5nc(-c6ccco6)nn5C(N)=NC43)CC2)cc1 (centres unmarked) [compound of Formula I]
- Cmax ([1]; average across healthy human volunteers): 112 to 130 ng/mL
- AUC ([1]; AUC to time serum level drops below detectable limit, read-out: AUC(tf)): 336 to 457 ng·h/mL
- AUC ([1]; read-out: AUC values measured from t=0 to 1 hr.): 352 to 478 ng·h/mL
- reports of common adverse events: Parkinsonism; somnolence; dyskinesia ([2]; 1, 2, 5 or 10 mg BID oral, 12 weeks, versus placebo group): no more frequency than was reported in the placebo group
- UPDRS part IV scores ([2]; amount sufficient to maintain steady state serum level of at least about 50 ng/ml): not accompanied by an increase
- decrease of UPDRS part III score below baseline ([2]; amount sufficient to maintain steady state serum level of at least about 50 ng/ml, FIG. 3, 2 hours post dose): at least 3 points
- proportion of "On-time" with dyskinesia or other motor complications ([2]; at least about 2 mg BID oral, 12 weeks, with L-dopa): no rise
- periods of "Off-time" [2, 5]: decrease
- periods of "On-time" [2, 5]: improvement
- average daily patient "Off-time" periods ([2]; at least about 5 mg BID oral): decrease
- average daily patient "On-time" periods ([2]; at least about 5 mg BID oral): increase
- objectional side effects, for example, dyskinesia, somnolence, or insomnia ([2]; at least about 5 mg BID oral): not accompanied by objectional side effects
- UPDRS score ([2]; at least about 5 mg BID oral, throughout the course of the study): improvement in UPDRS score which is maintained throughout the course of the study
- induction of sleep attacks ([2]; effective amount, patient assessment by clinicians): not associated with induction of sleep attacks
- patient sleep patterns (total daily sleep time) ([2]; from about 2 mg BID to about 10 mg BID, FIG. 2): does not significantly adversely effect patient sleep patterns
- differences in bioavailability (AUC or Cmax) between groups divided by age or sex [3]: no statistically significant differences
- receptor site occupancy (A2a receptors; BID dosing about 5 mg to about 50 mg, for at least about 12 hours/day in at least about 80% of the human population): at least 50%
- receptor site occupancy (A2a receptors; BID dosing about 5 mg to about 50 mg, for at least about 18 hours/day in at least about 75% of the population): at least 80%
- brain distribution by PET scan (A2a receptors; human brain, 11C-labelled compound of Formula II as radiotracer): high concentrations of the compound of Formula I in regions of the brain known to contain high levels of A2a receptors
- receptor occupancy at 0.05 µg/mL (A2a receptors; human, plasma concentrations in excess of about 50 ng/ml, believed to be Emax): ~90%
- plasma concentration at 50% receptor site occupancy (A2a receptors; on average, PET, humans): 6 ng/mL
- receptor site occupancy (A2a receptors; plasma concentration levels exceeding about 25 ng/mL in humans): high level of receptor site occupancy
- suppression of Haldol-induced akathisia [4]: successful in suppressing akathisia
